Values of other authors, collected in patent US11007501B2, “Reduced permeability microcapsules” (Trucapsol LLC, priority 2018, dated 2021).

| Octanol/water Partition Coefficient (logP) | Substance |
| --- | --- |
| 1.3 | Nonalactone |
| 2.11 | Violiff |
